Measurements taken from patent US20210371351A1, “MIXTURES COMPRISING AT LEAST TWO DIFFERENT NITRIFICATION INHIBITORS SELECTED FROM 2-(3,4-DIMETHYL-1H-PYRAZOL-1-YL)SUCCINIC ACID (DMPSA), 3,4-DIMETHYL PYRAZOLIUM GLYCOLATE (DMPG) AND OTHER COMPOUNDS” (BASF SE, priority 2017, published 2021).

System: nitrification
Assay: Example 5: soil incubation in bottles with ammonium sulfate, DMPSA, DCD or mixtures, 5 to 15° C., 0 up to 56 days; recovery NH4 (RE/RC), net recovery NH4 (NE/NC), inhibition of NO3 formation (IE/IC, Böhland; Colby)
Procedure: 100 g soil is filled into 500 ml plastic bottles (e.g. soil sampled from the field) and is moistened to 50% water holding capacity. The soil is incubated at 20° C. for two weeks to activate the microbial biomass. 1 ml test solution, containing the compositions and mixtures of the invention in the appropriate concentration, or DMSO and 5 to 10 mg nitrogen in the form of ammoniumsulfate-N is added to the soil and everything mixed well. Bottles are capped but loosely to allow air exchange. The bottles are then incubated at 5 to 15° C. for 0 up to 56 days.
For analysis, 300 ml of a 1% K2SO4-solution is added to the bottle containing the soil and shaken for 2 hrs in a horizontal shaker at 150 rpm. Then the whole solution is filtered through a Macherey-Nagel Filter MN 807′/. Ammonium and nitrate content is then analyzed in the filtrate in an autoanalyzer at 550 nm (Merck, AA11).
The Böhland equation is described in Böhland, H., et al. (1973) “Mittel zur Hemmung bzw. Regelung der Nitrifikation von Ammoniumstickstoff in Kulturböden”. DDR-Wirtschaftspatent (Economic patent of the German Democratic Republic) C 05c 169 727. Cited by: Peschke, H. (1985) “Zur Bewertung der inhibierenden Wirkung von Nitrifiziden im Boden”, Zbl. Mikrobiol. 140, pp. 583-588.

SMILES: N#CN=C(N)N [DCD, dicyandiamide]
- IE inhibition of NO3 formation (IT5° C., DAT10, % a.i.: DMPSA 0.5, DCD 1, DMPSA + DCD 0.5 + 1 (1:2)): 10
- IE inhibition of NO3 formation (IT5° C., DAT10, % a.i.: DMPSA 0.5, DCD 3, DMPSA + DCD 0.5 + 3 (1:6)): 43
- IE inhibition of NO3 formation (IT5° C., DAT20, % a.i.: DMPSA 0.5, DCD 1, DMPSA + DCD 0.5 + 1 (1:2)): −5
- IE inhibition of NO3 formation (IT5° C., DAT20, % a.i.: DMPSA 0.5, DCD 3, DMPSA + DCD 0.5 + 3 (1:6)): 32
- IE (inhibition of NO3 formation, Böhland) (IT5° C., DAT28, % a.i. DMPSA 0.25, DCD 1): 65
- IE (inhibition of NO3 formation, Böhland) (IT5° C., DAT28, % a.i. DMPSA 0.25, DCD 3): 73
- IE (inhibition of NO3 formation, Böhland) (IT5° C., DAT28, % a.i. DMPSA 0.30, DCD 0.05): 1
- IE (inhibition of NO3 formation, Böhland) (IT5° C., DAT28, % a.i. DMPSA 0.50, DCD 0.08): 12
- IE inhibition of NO3 formation (IT5° C., DAT28, % a.i.: DMPSA 0.50, DCD 0.0125, DMPSA + DCD 0.50 + 0.0125 (40:1)): −7
- IE inhibition of NO3 formation (IT5° C., DAT28, % a.i.: DMPSA 0.50, DCD 0.0143, DMPSA + DCD 0.50 + 0.0143 (35:1)): −2
- IE inhibition of NO3 formation (IT5° C., DAT28, % a.i.: DMPSA 0.50, DCD 0.0167, DMPSA + DCD 0.50 + 0.0167 (30:1)): 0
- IE inhibition of NO3 formation (IT5° C., DAT30, % a.i.: DMPSA 0.5, DCD 1, DMPSA + DCD 0.5 + 1 (1:2)): 70
- IE inhibition of NO3 formation (IT5° C., DAT30, % a.i.: DMPSA 0.5, DCD 3, DMPSA + DCD 0.5 + 3 (1:6)): 113
- IE (inhibition of NO3 formation, Böhland) (IT5° C., DAT42, % a.i. DMPSA 0.25, DCD 1): 63
- IE (inhibition of NO3 formation, Böhland) (IT5° C., DAT42, % a.i. DMPSA 0.25, DCD 3): 82
- IE (inhibition of NO3 formation, Böhland) (IT5° C., DAT42, % a.i. DMPSA 0.30, DCD 0.05): 7
- IE (inhibition of NO3 formation, Böhland) (IT5° C., DAT42, % a.i. DMPSA 0.50, DCD 0.08): 18
- IE (inhibition of NO3 formation, Böhland) (IT5° C., DAT56, % a.i. DMPSA 0.25, DCD 1): 57
- IE (inhibition of NO3 formation, Böhland) (IT5° C., DAT56, % a.i. DMPSA 0.25, DCD 3): 74
- IE (inhibition of NO3 formation, Böhland) (IT5° C., DAT56, % a.i. DMPSA 0.30, DCD 0.05): 13
- IE (inhibition of NO3 formation, Böhland) (IT5° C., DAT56, % a.i. DMPSA 0.50, DCD 0.08): −1
- IE inhibition of NO3 formation (IT10° C., DAT10, % a.i.: DMPSA 0.5, DCD 1, DMPSA + DCD 0.5 + 1 (1:2)): 18
- IE inhibition of NO3 formation (IT10° C., DAT10, % a.i.: DMPSA 0.5, DCD 3, DMPSA + DCD 0.5 + 3 (1:6)): 59
- IE inhibition of NO3 formation (IT10° C., DAT20, % a.i.: DMPSA 0.5, DCD 1, DMPSA + DCD 0.5 + 1 (1:2)): 15
- IE inhibition of NO3 formation (IT10° C., DAT20, % a.i.: DMPSA 0.5, DCD 3, DMPSA + DCD 0.5 + 3 (1:6)): 24
- IE (inhibition of NO3 formation, Böhland) (IT10° C., DAT28, % a.i. DMPSA 0.25, DCD 1): 47
- IE (inhibition of NO3 formation, Böhland) (IT10° C., DAT28, % a.i. DMPSA 0.25, DCD 3): 64
- IE (inhibition of NO3 formation, Böhland) (IT10° C., DAT28, % a.i. DMPSA 0.30, DCD 0.05): 4
- IE (inhibition of NO3 formation, Böhland) (IT10° C., DAT28, % a.i. DMPSA 0.50, DCD 0.08): 2
- IE inhibition of NO3 formation (IT10° C., DAT28, % a.i.: DMPSA 0.50, DCD 0.0125, DMPSA + DCD 0.50 + 0.0125 (40:1)): 1
- IE inhibition of NO3 formation (IT10° C., DAT28, % a.i.: DMPSA 0.50, DCD 0.0143, DMPSA + DCD 0.50 + 0.0143 (35:1)): −3
- IE inhibition of NO3 formation (IT10° C., DAT28, % a.i.: DMPSA 0.50, DCD 0.0167, DMPSA + DCD 0.50 + 0.0167 (30:1)): −1
- IE inhibition of NO3 formation (IT10° C., DAT30, % a.i.: DMPSA 0.5, DCD 1, DMPSA + DCD 0.5 + 1 (1:2)): 47
- IE inhibition of NO3 formation (IT10° C., DAT30, % a.i.: DMPSA 0.5, DCD 3, DMPSA + DCD 0.5 + 3 (1:6)): 55
- IE (inhibition of NO3 formation, Böhland) (IT10° C., DAT42, % a.i. DMPSA 0.25, DCD 1): 51
- IE (inhibition of NO3 formation, Böhland) (IT10° C., DAT42, % a.i. DMPSA 0.25, DCD 3): 64
- IE (inhibition of NO3 formation, Böhland) (IT10° C., DAT42, % a.i. DMPSA 0.30, DCD 0.05): −1
- IE (inhibition of NO3 formation, Böhland) (IT10° C., DAT42, % a.i. DMPSA 0.50, DCD 0.08): −1
- IE (inhibition of NO3 formation, Böhland) (IT10° C., DAT56, % a.i. DMPSA 0.25, DCD 1): 19
- IE (inhibition of NO3 formation, Böhland) (IT10° C., DAT56, % a.i. DMPSA 0.25, DCD 3): 29
- IE (inhibition of NO3 formation, Böhland) (IT10° C., DAT56, % a.i. DMPSA 0.30, DCD 0.05): −3
- IE (inhibition of NO3 formation, Böhland) (IT10° C., DAT56, % a.i. DMPSA 0.50, DCD 0.08): 0
- IE inhibition of NO3 formation (IT15° C., DAT10, % a.i.: DMPSA 0.5, DCD 1, DMPSA + DCD 0.5 + 1 (1:2)): 34
- IE inhibition of NO3 formation (IT15° C., DAT10, % a.i.: DMPSA 0.5, DCD 3, DMPSA + DCD 0.5 + 3 (1:6)): 55
- IE inhibition of NO3 formation (IT15° C., DAT20, % a.i.: DMPSA 0.5, DCD 1, DMPSA + DCD 0.5 + 1 (1:2)): 47
- IE inhibition of NO3 formation (IT15° C., DAT20, % a.i.: DMPSA 0.5, DCD 3, DMPSA + DCD 0.5 + 3 (1:6)): 64
- IE (inhibition of NO3 formation, Böhland) (IT15° C., DAT28, % a.i. DMPSA 0.25, DCD 1): 27
- IE (inhibition of NO3 formation, Böhland) (IT15° C., DAT28, % a.i. DMPSA 0.25, DCD 3): 46
- IE inhibition of NO3 formation (IT15° C., DAT28, % a.i.: DMPSA 0.30, DCD 0.05, DMPSA + DCD 0.30 + 0.05 (6:1)): 5
- IE inhibition of NO3 formation (IT15° C., DAT28, % a.i.: DMPSA 0.50, DCD 0.0125, DMPSA + DCD 0.50 + 0.0125 (40:1)): 2
- IE inhibition of NO3 formation (IT15° C., DAT28, % a.i.: DMPSA 0.50, DCD 0.0143, DMPSA + DCD 0.50 + 0.0143 (35:1)): 1
- IE inhibition of NO3 formation (IT15° C., DAT28, % a.i.: DMPSA 0.50, DCD 0.0167, DMPSA + DCD 0.50 + 0.0167 (30:1)): 1
- IE inhibition of NO3 formation (IT15° C., DAT28, % a.i.: DMPSA 0.50, DCD 0.08, DMPSA + DCD 0.50 + 0.08 (6.25:1)): 2
- IE inhibition of NO3 formation (IT15° C., DAT30, % a.i.: DMPSA 0.5, DCD 1, DMPSA + DCD 0.5 + 1 (1:2)): 42
- IE inhibition of NO3 formation (IT15° C., DAT30, % a.i.: DMPSA 0.5, DCD 3, DMPSA + DCD 0.5 + 3 (1:6)): 59
- IE (inhibition of NO3 formation, Böhland) (IT15° C., DAT42, % a.i. DMPSA 0.25, DCD 1): 12
- IE (inhibition of NO3 formation, Böhland) (IT15° C., DAT42, % a.i. DMPSA 0.25, DCD 3): 21
- IE inhibition of NO3 formation (IT15° C., DAT42, % a.i.: DMPSA 0.30, DCD 0.05, DMPSA + DCD 0.30 + 0.05 (6:1)): 2
- IE inhibition of NO3 formation (IT15° C., DAT42, % a.i.: DMPSA 0.50, DCD 0.08, DMPSA + DCD 0.50 + 0.08 (6.25:1)): 3
- IE (inhibition of NO3 formation, Böhland) (IT15° C., DAT56, % a.i. DMPSA 0.25, DCD 1): 1
- IE (inhibition of NO3 formation, Böhland) (IT15° C., DAT56, % a.i. DMPSA 0.25, DCD 3): 3
- IE inhibition of NO3 formation (IT15° C., DAT56, % a.i.: DMPSA 0.30, DCD 0.05, DMPSA + DCD 0.30 + 0.05 (6:1)): 16
- IE inhibition of NO3 formation (IT15° C., DAT56, % a.i.: DMPSA 0.50, DCD 0.08, DMPSA + DCD 0.50 + 0.08 (6.25:1)): 13
